Where a name gives a salt, the structure may show the parent alone.
Key:
mice [1] = experiment: Analgesic activity: protection from contortions induced by phenylbenzoquinone; type: in vivo; conditions: for DE50 (mg/kg, o.a.): o.a. (orally); for DE50 (mg/kg, o.a.) / DE50 (mg/kg, s.c.): phenylbenzoquinone 5 mg/kg i.p.
Protocol: The analgesic activity of the products of the invention have been studied by evaluation of their effect in the test of contortions induced by phenylbenzoquinone in mice, following the method described by Siegmund E., and coworkers (Proc. Soc. Exp. Biol. Med. 1957, 95: 729-731).
The mice received the products of the study, a different dosage levels, and one later they received an injections i.p. of 5 mg/kg of phenylbenzoquinone. The portions of the mice were registered for the following fifteen minutes and compared the contortions of the control group. The DE50 (dosage efficacy 50) of the pound of Example 4 is shown.

mice [2] = experiment: General anaesthetic activity in mice, I.V. administration; type: in vivo; conditions: i.v. caudal vein; for Duration: duration of sleep; for Start / Start (s): start of sleep
Protocol: General Anaesthetic Activity
The general anaesthetic activity was study in mice, injecting the product of the study in the caudal vein. The start and duration time of sleep were recorded. The results for some of the products of the patent are shown in Table 3 and it can be seen that they show a clear anaesthetic activity with respect to the reference compound (Propofol), with the animals recovering later.

mice [3] = experiment: Sleep-inducing activity: capacity to increase the sleep time induced by barbital; type: in vivo; conditions: for % Activity (sleep) Dosage 100 mg/kg: product 100 mg/Kg i.p., 15 min after barbital 150 mg/Kg i.v.; for DE50: product i.p. 15 min after barbital 150 mg/Kg i.v., dosage efficacy 50
Protocol: Sleep-inducing Activity in Mice
Fifteen minutes after the administration of barbital (150 mg/Kg, i.v.), the mice were treated with the product of the study at an initial dose of 100 mg/Kg (i.p.).

mice [4] = experiment: Muscular relaxant (miorelaxant) activity in the Irwing mouse test; type: in vivo; conditions: 80 mg/kg i.p.; for % muscular relaxation at a time of: 1 H: 1 H after administration; for % muscular relaxation at a time of: 2 H: 2 H after administration; for % muscular relaxation at a time of: 3 H: 3 H after administration; for % muscular relaxation at a time of: 4 H: 4 H after administration; for % muscular relaxation at a time of: 5 H: 5 H after administration; for % muscular relaxation at a time of: ½ H: ½ H after administration
Protocol: Muscular Relaxant Activity
The mice received the products under study at a dosage of 80 mg/kg, via I.p., and at different times after administration (½, 1, 2, 3, 4 and 5 hours) the body tone and the abdominal tone was evaluated looking at the muscular tension compared to the control animals.

## Cc1sc2ccccc2c1Cl
other
  melting point: 175 to 176 °C

## COc1ccnc(N2CCN(C(=O)c3ccco3)CC2)n1 (as salt: HCl) (hydrate or solvate) [Example 2, 2-[4-(2-furylcarbonyl)-1-piperazinyl]-4-methoxypyrimidine chlorohydrate]
other
  melting point: 162 to 164 °C

## COc1ccnc(N2CCN(C(=O)c3cccs3)CC2)n1 (as salt: HCl) (hydrate or solvate) [Example 4, 4-methoxy-2-[4-(2-thienylcarbonyl)-1-piperazinyl]pyrimidine chlorohydrate]
other
  melting point: 143 to 145 °C

## COc1ccnc(N2CCN(C(=O)c3ccsc3)CC2)n1 (as salt: HCl) (hydrate or solvate) [Example 13, 4-methoxy-2-[4-(3-thienylcarbonyl)-1-piperazinyl]pyrimidine chlorohydrate]
other
  melting point: 154 to 156 °C

## CC(=O)Oc1ccccc1C(=O)O [Aspirin, reference compound]
Mice [1]
  DE50 (mg/kg, o.a.): 120 mg/kg
  DE50 (mg/kg, s.c.): 84 mg/kg

## COc1ccnc(N2CCN(C(=O)c3ccco3)CC2)n1 [Example 2, 2-[4-(2-furylcarbonyl)-1-piperazinyl]-4-methoxypyrimidine chlorohydrate]
Mice [2]; dosage 40 mg/kg
  Duration: 0.6 min
  Start: 12 s
Mice [2]; dosage 80 mg/kg
  Duration: 5.3 min
  Start (s): Immediate
Mice [3]
  % Activity (sleep) Dosage 100 mg/kg: 93%
  DE50: 14.4 mg/kg

## COc1ccnc(N2CCN(C(=O)c3cccs3)CC2)n1 [Example 4, 4-methoxy-2-[4-(2-thienylcarbonyl)-1-piperazinyl]pyrimidine chlorohydrate]
Mice [4]
  % muscular relaxation at a time of: 1 H: 90%
  % muscular relaxation at a time of: 2 H: 10%
  % muscular relaxation at a time of: 3 H: 0%
  % muscular relaxation at a time of: 4 H: 0%
  % muscular relaxation at a time of: 5 H: 0%
  % muscular relaxation at a time of: ½ H: 100%
Mice [1]
  DE50 (mg/kg, o.a.): 72 mg/kg
  DE50 (mg/kg, s.c.): 48 mg/kg
Mice [1]; subcutaneously and orally
  analgesic activity compared with aspirin (in words): better analgesic activity
Mice [2]; dosage 40 mg/kg
  Duration: 1.3 min
  Start: 15 s
Mice [2]; dosage 80 mg/kg
  Duration: 7.4 min
  Start (s): Immediate
Mice [3]
  % Activity (sleep) Dosage 100 mg/kg: 100%
  DE50: 8.7 mg/kg

## COc1ccnc(N2CCN(C(=O)C3CC3)CC2)n1 [Example 9]
Mice [3]
  % Activity (sleep) Dosage 100 mg/kg: 67%
  DE50: 28.1 mg/kg

## COc1ccnc(N2CCN(C(=O)c3ccsc3)CC2)n1 [Example 13, 4-methoxy-2-[4-(3-thienylcarbonyl)-1-piperazinyl]pyrimidine chlorohydrate]
Mice [3]
  % Activity (sleep) Dosage 100 mg/kg: 77%
  DE50: 41.3 mg/kg

## CCCC(C)(COC(N)=O)COC(N)=O [Meprobamate, reference compound]
Mice [3]
  % Activity (sleep) Dosage 100 mg/kg: 54%
  DE50: 84.5 mg/kg

## CC(C)c1cccc(C(C)C)c1O [Propofol, reference compound]
Mice [4]
  % muscular relaxation at a time of: 1 H: 100%
  % muscular relaxation at a time of: 2 H: 70%
  % muscular relaxation at a time of: 3 H: 0%
  % muscular relaxation at a time of: 4 H: 0%
  % muscular relaxation at a time of: 5 H: 0%
  % muscular relaxation at a time of: ½ H: 100%
Mice [2]; dosage 80 mg/kg
  Duration: 0 min
  Start (s): No
Mice [2]; dosage 106 mg/kg
  Duration: 6.2 min
  Start: 30 s
Mice [2]; dosage 120 mg/kg
  Duration: 3.9 min
  Start: 20 s

From patent US6372746B1, “Derivatives of acyl-piperazinyl-pyrimidines, preparation thereof and application as medicaments” (Laboratorios Del Dr. Esteve, S.A., priority 1997, dated 2002)
